Data set [1] in a line: Selectivity for sigma 2 receptor over sigma 1 receptor.
The nature of data set [2]: Antiproliferative activity against mouse TRAMP cells. Type of data set: functional, cell-based.
Data set [3] can be described thus: Cytotoxicity against mouse TRAMP cells. In kind it is functional, cell-based.
Data set [4] deals with Sigma non-opioid intracellular receptor 1 (Mus musculus, UniProt O55242). As to the kind of experiment: Displacement of (+)-[3H]pentazocine from mouse sigma 1 receptor in TRAMP cell membrane. Type of data set: cell membranes.
The nature of data set [5]: Apparent permeability from apical to basolateral side of human Caco-2 cell membrane at pH 7.4 after 21 days. In kind it is ADME, cell-based. As to conditions: Caco-2, pH 7.4.
Data set [6] is described as follows: Displacement of [3H]DTG from mouse sigma-2 receptor in TRAMP cell membrane. In kind it is cell membranes. (In general: Loss of bound radioactivity is the signal in a displacement assay; it reports binding, not function.)

As usually defined, the EC50 is the concentration at which the effect is half-maximal. A higher EC50 goes with a need for much substance. A word on the Ki: it is a measure of affinity in units of concentration, obtained from inhibition or displacement. Higher therefore signals lower affinity. Broadly, the Papp A→B is the apparent permeability from the apical to the basolateral side of a cell layer.

Sequence of Sigma non-opioid intracellular receptor 1 (O55242 whole entry): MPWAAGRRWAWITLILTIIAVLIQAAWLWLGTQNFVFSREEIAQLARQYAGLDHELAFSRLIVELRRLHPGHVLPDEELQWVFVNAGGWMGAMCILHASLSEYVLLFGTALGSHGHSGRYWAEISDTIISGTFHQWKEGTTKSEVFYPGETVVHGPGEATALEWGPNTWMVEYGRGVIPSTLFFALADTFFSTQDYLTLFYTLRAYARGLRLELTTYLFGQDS

Regarding `COc1cccc2c1CCCC2CCCN1CCN(C2CCCCC2)CC1` (stereo unspecified), in data set [1], the Selectivity ratio was 40.

For `COc1cccc2c(CCCN3CCN(C4CCCCC4)CC3)cccc12`, the EC50 in data set [2] came out at 16.9 µM; in data set [3] it was 26.6 µM. Further, the Ki was 0.0065 µM in data set [4] and 0.0005 µM in data set [6]. For the same compound, in data set [5], the Papp A→B came to 6.3 ×10⁻⁶ cm/s.

Source of the values: ChEMBL document CHEMBL1143229, “PB183, a sigma receptor ligand, as a potential PET probe for the imaging of prostate adenocarcinoma” (Bioorg Med Chem Lett, 2008).
